Assay results taken from ChEMBL document CHEMBL1770146, “Structure-activity relationship studies of novel 3-oxazolidinedione-6-naphthyl-2-pyridinones as potent and orally bioavailable EP3 receptor antagonists” (Bioorg Med Chem Lett, 2011).
pKi: −log10 of the molar value. The source made the active and inactive calls. No cut-off for these calls is given here.

Key:
[1] = Half life in Sprague-Dawley rat at 1 mg/kg, iv and 2 mg/kg, po; type: ADME, organism-based; conditions: in vivo
Rattus norvegicus = test: Dose normalized AUC in Sprague-Dawley rat at 2 mg/kg, po; type: ADME, organism-based; parameters: dose 2 mg/kg, route oral; conditions: in vivo
[2] = Oral bioavailability in Sprague-Dawley rat at 2 mg/kg; type: ADME, organism-based; conditions: in vivo
[3] = Clearance in Sprague-Dawley rat at 1 mg/kg, iv and 2 mg/kg, po; type: ADME, organism-based; conditions: in vivo
[4] = molecular target: T1, Prostaglandin E2 receptor EP3 subtype (Homo sapiens, UniProt P43115); test: Antagonist activity at human EP3 receptor expressed in CHO cells assessed as inhibition of PGE2-induced increase in intracellular calcium concentration after 1 hr by FLIPR assay; type: functional, cell-based
T1 sequence (P43115 whole entry): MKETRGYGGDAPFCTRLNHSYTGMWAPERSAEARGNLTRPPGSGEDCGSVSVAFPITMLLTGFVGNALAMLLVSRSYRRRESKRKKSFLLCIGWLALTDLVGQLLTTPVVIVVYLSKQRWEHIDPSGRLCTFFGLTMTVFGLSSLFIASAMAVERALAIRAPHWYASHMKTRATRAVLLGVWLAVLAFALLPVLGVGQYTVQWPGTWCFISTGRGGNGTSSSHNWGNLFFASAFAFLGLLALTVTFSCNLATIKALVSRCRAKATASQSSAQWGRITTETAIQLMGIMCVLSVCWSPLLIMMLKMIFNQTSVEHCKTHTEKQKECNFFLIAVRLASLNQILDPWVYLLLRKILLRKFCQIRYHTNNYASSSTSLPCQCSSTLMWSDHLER

Canis lupus familiaris = species on record: Canis lupus familiaris; test: Antagonist activity at dog EP3 receptor; type: functional
[5] = molecular target: T2, Prostaglandin E2 receptor EP3 subtype (Rattus norvegicus) (UniProt P34980); test: Antagonist activity at rat EP3 receptor; type: functional
T2 sequence (whole entry): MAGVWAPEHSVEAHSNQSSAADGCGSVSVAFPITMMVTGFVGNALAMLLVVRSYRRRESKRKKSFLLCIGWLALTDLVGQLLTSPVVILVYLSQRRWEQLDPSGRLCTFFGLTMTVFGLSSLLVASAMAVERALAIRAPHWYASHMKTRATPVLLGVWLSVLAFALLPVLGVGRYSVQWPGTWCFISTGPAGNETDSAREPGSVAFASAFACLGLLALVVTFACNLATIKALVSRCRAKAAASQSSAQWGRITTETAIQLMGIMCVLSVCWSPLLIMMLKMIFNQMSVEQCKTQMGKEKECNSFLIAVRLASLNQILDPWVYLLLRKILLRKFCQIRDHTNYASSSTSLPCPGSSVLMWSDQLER

With `CC(C)C1(c2ccc(-c3ccc4ccccc4c3)[nH]c2=O)OC(O)=NC1=O` (centres undefined) the half-life [1] was 3.5 h, the AUC (Rattus norvegicus) was 4400 ng·h/mL and the bioavailability [2] was 100%. The clearance [3] was 5.1 mL/min/kg.
In the case of `O=C1NC(=O)C(c2ccc(-c3ccc4ccccc4c3)[nH]c2=O)(C2CCCC2)O1` (centres undefined), the pKi [4] was 8.10.
In the case of `O=C1NC(=O)C(c2ccc(-c3ccc4ccccc4c3)[nH]c2=O)(C2CC2)O1` (centres undefined), the pKi [4] was 7.30.
For `CC1(c2ccc(-c3ccc4ccccc4c3)[nH]c2=O)NC(=O)NC1=O` (centres undefined), the pKi [4] was 6.50.
Compound `CC1(c2ccc(-c3ccc4ccccc4c3)cc2O)OC(=O)NC1=O` (centres undefined) has a pKi [4] of 5.90.
Compound `O=C1NC(=O)C(c2ccc(-c3ccc4ccccc4c3)[nH]c2=O)(C2CCOCC2)O1` (centres undefined) has a pKi [4] of 6.70.
`CC(C)[C@@]1(c2ccc(-c3ccc4ccccc4c3)[nH]c2=O)OC(=O)NC1=O` gave a pKi [4] of 8.10.
`O=C1NC(=O)C(c2ccccc2)(c2ccc(-c3ccc4ccccc4c3)[nH]c2=O)O1` (centres undefined) showed a pKi [4] of 7.50.
In the case of `CC(C)C1(c2ccc(-c3ccc4ccccc4c3)nc2)OC(=O)NC1=O` (centres undefined), the pKi [4] was < 4.60.
For `Cn1c(-c2ccc3ccccc3c2)ccc(C2(C)OC(=O)NC2=O)c1=O` (centres undefined), the pKi [4] was < 4.60.
Compound `COc1cc(-c2ccc3ccccc3c2)ccc1C1(C)OC(=O)NC1=O` (centres undefined) has a pKi [4] of 5.50.
For `O=C1NC(=O)C(c2ccc(-c3ccc4ccccc4c3)[nH]c2=O)(C2CCCCC2)O1` (centres undefined), the pKi [4] was 8.10.
`CC(C)C1(c2cc(Cl)c(-c3ccc4ccccc4c3)[nH]c2=O)OC(=O)NC1=O` (centres undefined) showed a half-life [1] of 5.3 h, an AUC (Rattus norvegicus) of 12900 ng·h/mL and a bioavailability [2] of 86%. The clearance [3] was 1.2 mL/min/kg and the pKi [4] was 7.30.
With `CC1(c2ccc(-c3ccc4ccccc4c3)[nH]c2=O)CNC(=O)N1` (centres undefined) the pKi [4] was 7.40.
`CC(C)[C@]1(c2ccc(-c3ccc4ccccc4c3)[nH]c2=O)OC(=O)NC1=O` gave a pKi [4] of 7.70.
Work on `CC(C)C1(c2cc(-c3ccccc3)c(-c3ccc4ccccc4c3)[nH]c2=O)OC(=O)NC1=O` (centres undefined) yielded a pKi [4] of 5.60.
Work on `CC1(c2ccc(-c3ccc4ccccc4c3)[nH]c2=O)OC(=O)NC1=O` (centres undefined) yielded a pKi [4] of 7.70.
`CC1(c2ccc(-c3ccc4ccccc4c3)[nH]c2=O)CNC(=O)O1` (centres undefined) showed a pKi [4] of 7.10.
With `CC(C)C1(c2ccc(-c3ccc4ccccc4c3)[nH]c2=O)OC(=O)NC1=O` (centres undefined) the Activity (Canis lupus familiaris) was “Active” and the Activity [5] was “Active”.
For `CN1C(=O)OC(C)(c2ccc(-c3ccc4ccccc4c3)[nH]c2=O)C1=O` (centres undefined), the pKi [4] was 6.30.
`CC(C)C1(c2c[nH]c(-c3ccc4ccccc4c3)cc2=O)OC(=O)NC1=O` (centres undefined) showed a pKi [4] of 6.10.
For `Cc1cc(C2(C(C)C)OC(=O)NC2=O)c(=O)[nH]c1-c1ccc2ccccc2c1` (centres undefined), the half-life [1] was 6.6 h, the AUC (Rattus norvegicus) was 13500 ng·h/mL and the bioavailability [2] was 100%. For the same compound, the clearance [3] was 1.4 mL/min/kg and the pKi [4] was 8.20.
`CC(C)C1(c2cc(C(F)(F)F)c(-c3ccc4ccccc4c3)[nH]c2=O)OC(=O)NC1=O` (centres undefined) showed a pKi [4] of 6.20.
Compound `CC(C)N1C(=O)OC(C)(c2ccc(-c3ccc4ccccc4c3)[nH]c2=O)C1=O` (centres undefined) has a pKi [4] of 5.80.
`O=C1NC(=O)C(c2ccc(-c3ccc4ccccc4c3)[nH]c2=O)(C(F)(F)F)O1` (centres undefined) showed a pKi [4] of 6.90.
In the case of `CC(C)C1(c2cc(Br)c(-c3ccc4ccccc4c3)[nH]c2=O)OC(=O)NC1=O` (centres undefined), the pKi [4] was 7.40.
With `O=C1NC(=O)C(Cc2ccccc2)(c2ccc(-c3ccc4ccccc4c3)[nH]c2=O)O1` (centres undefined) the pKi [4] was 7.80.
